Test results as given in US7232805B2, “Cobalamin conjugates for anti-tumor therapy” (Inflabloc Pharmaceuticals, Inc., priority 2003, dated 2007).

System: MCF-7 cells
Assay: CellTiter-Glo Luminescent Cell Viability Assay, MCF-7 cells
Assay type: cell-based, human
Settings: MCF-7, 96 hours, 100 μM down to 10 nM, FIG. 6a
From the text: FIGS. 6a-6d depict the results of in vitro assays of the conjugate against four cell lines. FIG. 6A is a chart depicting the results of the conjugate against MCF-7 cells, cells derived from a human breast cancer cell line. FIG. 6B is a chart depicting the results of the conjugate against SK-BR-3 cells, cells derived from a human breast adenocarcinoma cell line. FIG. 6C is a chart depicting the results of the conjugate against HL-60 cells, cells derived from a human promyelocytic leukemia cell line. FIG. 6D is a chart depicting the results of the conjugate against SK-N-MC cells, cells derived from a human brain neuroblastoma (neuroepithelioma) cell line. […]
After 96 hours, the effects of doxorubicin and B12-S-doxorubicin on cell viability were determined using an assay from Promega. The CellTiter-Glo™ Luminescent Cell Viability Assay quantitates the ATP present in a culture, which correlates with metabolically active cells. Luminescence, which is dependent on ATP concentration, was measured for each individual well on a Wallac MicroBeta® JET Liquid Scintillation and Luminescence Counter. The average luminescence value of the three wells containing medium alone was subtracted from the raw data values to give corrected values. […] The three corrected values for wells dosed with the same concentration of compound were averaged and the standard deviation calculated. […]

## COc1cccc2c1C(=O)c1c(O)c3c(c(O)c1C2=O)C[C@@](O)(C(=O)CO)C[C@@H]3O[C@H]1C[C@H](NC(=O)OCc2ccc(NC(=O)[C@H](CCCCN)NC(=O)[C@H](Cc3ccccc3)NC(=O)CCCCCNC(=O)OC[C@H]3O[C@H](n4cnc5cc(C)c(C)cc54)[C@H](O)[C@@H]3OP(=O)(O)O[C@H](C)CNC(=O)CC[C@@]3(C)C4=C(C)C5=NC(=CC6=NC(=C(C)C7=N[C@@](C)([C@H](N4)[C@@H]3CC(N)=O)[C@@](C)(CC(N)=O)[C@@H]7CCC(N)=O)[C@@](C)(CC(N)=O)[C@@H]6CCC(N)=O)C(C)(C)[C@@H]5CCC(N)=O)cc2)[C@H](O)[C@H](C)O1 [conjugate 13, B12-5′-OCONH(CH2)5CO-Phe-Lys-PABC-Dox]
  cell viability versus free doxorubicin: same effectiveness as doxorubicin and is slightly less potent than doxorubicin
